The values below come from patent publication US20020165270A1, “Use of a pharmaceutical composition for treating and/or preventing ischemia” (priority 1997, published 2002).

Experiment [1] relates to complex I of the mitochondria. In words: Protection of complex I inhibited by Amytal, measured via the RCR. Type of experiment: biochemical. As to conditions: for Protection of complex I (%): complex I 58% inhibited by 0.5 mM Amytal, 60 minute incubation, Ginkor Fort 0.3 mg/ml, Bilobalide 0.8 μg/ml, Reparil 75 ng/ml, Nafthoquinone 10^−7 M, Praxilene 10^−7 M, no medicament = 0%. As for the experimental part: (§1) The process of the oxidative phosphorylation of ATP is a complex process which involves different enzyme complexes or electron transporters, which generate a proton gradient (complexes I, III and IV), ATP synthases (complex V), which is directly responsible for synthesizing ATP, and adenine translocase, which is the transporter which is required for importing ADP and exporting ATP (FIG. 4).
Complex I of the mitochondria was 58% inhibited by the presence of 0.5 mM Amytal. Under these conditions, the presence of the molecules at the indicated concentrations (60 minute incubation) results in an inhibition which is markedly less pronounced, with this having been expressed in percentage protection as compared with the mitochondria without medicament, which are regarded as having 0% protection.

Experiment [2] has as its system brain mitochondria. In words: RCR of brain mitochondria of orally treated rats, normal conditions. It counts as in vivo, rat. As for the experimental part:
(§2) Different concentrations of active compounds of the invention (bilobalide) were tested on the RCR of the mitochondria which were isolated from rat brains. Five concentrations were employed: 4, 6, 8, 10 and 12 mg/kg of treated patient (rat). The rats were given these doses of bilobalide orally for 14 days. The mitochondria were isolated using the method described by Nowicki et al. (J. Cerebral Blood Flow and Metabolism, 2, pp. 33-40 (1982)). The respiration of the mitochondria is measured in a Clark oxygen electrode which is connected to a recording device. The RCR represents the respiratory control. It denotes the ratio between the consumption of oxygen in the presence of endogenous substrates (glutamate/malate) and the consumption after the ADP has been phosphorylated to ATP. This technique was developed by Chance and Williams (Nature, 175, pp. 1120-1121 (1955)). A dosedependent effect is obtained, with an increase of the RCR, of 3.7 in the case of the controls, to an RCR of 4.6 in the case of the 8 and 10 mg/kg concentrations. A maximum increase of 24% is obtained at 10 mg/kg.

In experiment [3] the test system is complex III of the mitochondria. In words: Protection of complex III inhibited by a specific inhibitor, measured via the RCR. Type of experiment: biochemical. As to conditions: Ginkor Fort 0.3 mg/ml, Bilobalide 0.8 μg/ml, Reparil 75 ng/ml, Nafthoquinone 10^−7 M, Praxilene 10^−7 M.
Source text: as §1

Experiment [4] concerns liver mitochondria. Put plainly: RCR of liver mitochondria after 10 minute ischemia of the perfused liver. Type of experiment: in vivo, rat. The following applies: 8 mg/kg per os for 14 days; 10 minute liver ischemia, perfusion medium with 8 mg of bilobalide/l; controls 3.73. As for the experimental part:
(§3) The active compound of the invention (bilobalide) was administered per os to rats for 14 days at concentrations of 8 mg/kg of patient (rat). The liver mitochondria of these rats were isolated using the method described by Remacle (J. Cell. Biol. 79, 291, 1978). […] A 10 minute ischemia was performed on the livers by perfusion in a medium consisting of 0.137 M NaCl, 5.4 mM KCl, 0.8 mM MgSO4, 11 mM glucose, 0.34 mM Na2HP03, 24.4 mM NaHCO3, 6.35 mM KH2PO4 and 8 mg of bilobalide/l. The medium is first of all degassed under an atmosphere containing 95% N2 and 5% CO2. The mitochondria are isolated and their respiratory activity is determined.
For the controls, the rats were given water for 14 days and the livers were perfused with the same solution as for the tests.

Experiment [5] concerns mitochondrial complex I. In words: Activity of mitochondrial complex I (ferricytochrome C reduction) in brain mitochondria of treated rats. As to conditions: 10 mg/kg per os for 14 days; after 15 minute ischemia of the brain; controls 36. It counts as in vivo, rat. As to the method:
The measurement carried out on the mitochondrial complex I was performed by first of all sonicating the mitochondria in order to enable the assay substrates to gain access to the complex I. The latter is assayed by following the reduction of ferricytochrome C at 550 nm. The mitochondrial suspension, which is present in a […] K phosphate buffer, pH 7.4, containing MgCl2, 10 μm of cytochrome C and 2.5 mg of bovine albumin/ml, is sonicated for 30 seconds at 0° C. 2 mM of KCW [sic] is added and the reaction is started by adding 7.5 mM NADH. The mitochondria are incubated at 37° C. and the reduction of the ferricyanide [sic] is followed at 550 nm. A correction is made for the reduction of the cytochrome C in the presence of rotenone, which inhibits complex I. The results are expressed in μmol of ferricytochrome C reduced per minute.
The activity of complex I was measured on the mitochondria of rats which had been treated per os for 14 days with 10 mg of bilobalide/kg, and after a 15minute ischemia of the brain. An activity of 36 mU/mg of protein is obtained in the case of the control rats, whereas the mitochondria from treated rats have an activity of 44 mU/mg of protein.

Experiment [6] deals with liver mitochondria. Put plainly: RCR of liver mitochondria of rats treated per os. Type of experiment: in vivo. As to conditions: rat liver mitochondria; 8 mg/kg per os for 14 days; controls 7.6. As to the method:
as §3

For experiment [7], the system named is mitochondria isolated from the livers of untreated rats. Put plainly: RCR of mitochondria isolated from livers of untreated rats, preincubated one hour with the medicaments. It counts as biochemical, rat. The following applies: for Protective effect on the RCR (%): class I molecules, final concentrations: Ginkor Fort 0.3 mg/ml, Bilobalide 0.8 μg/ml, Reparil 75 ng/ml, Naphthoquinone 10^−7 M, Praxilene 10^−7 M, one hour preincubation; for way in which the RCR is increased (class I / class II): liver mitochondria of untreated rats preincubated for one hour. As for the experimental part:
as §2
Each of the active compounds of the invention can, like bilobalide, increase the RCR of mitochondria which have been isolated from the livers of untreated rats when the mitochondria are preincubated for one hour in the presence of these medicaments. The active compounds can therefore act directly on the mitochondria.

Experiment [8] relates to brain mitochondria. Put plainly: RCR of brain mitochondria of treated rats after 15 minute ischemia. It counts as in vivo, rat. As to conditions: 10 mg/kg per os for 14 days; 15 minute ischemia by decapitation; glutamate/malate; controls 3. As to the method: A 15 minute ischemia was performed on control rats and rats which have been treated with active compounds of the invention (bilobalides) for 14 days. The ischemia is performed by decapitation. The rats were treated per os with bilobalide doses of 10 mg/kg for 14 days. When the RCR is measured in the presence of glutamate/malate in the case of a 15 minute ischemia, an RCR of 3 is observed in the case of the controls, with an RCR of 3.9 being observed in the case of the treated rats. The active compound therefore has a protective action on the decrease in respiratory activity which is induced by the ischemia. This protection is manifested through the activity of complex I and of the mitochondrial transport chain. The level of respiratory control which is measured in the presence of glutamate/malate indirectly mirrors the activity of complex I of the electron transfer chain.

For the molecule `CCC1(CCC(C)C)C(=O)NC(=O)NC1=O` [Amytal], the “inhibition of complex I of the mitochondria” value in experiment [1] (0.5 mM Amytal) came out at 58%.
On to `CC(C)(C)[C@]1(O)CC2OC(=O)CC23C(=O)OC2OC(=O)[C@H](O)C231` (stereo partly drawn) [Bilobalide, bilobalide], for which, in experiment [2] (10 mg/kg orally for 14 days, versus controls), the “maximum increase of the RCR” value was determined as 24%. The RCR is on record as 4.6 in experiment [2] (rat brain mitochondria, 8 and 10 mg/kg orally for 14 days, glutamate/malate, controls 3.7); 5.24 in experiment [4]; 13.25 in experiment [6]; 3.9 in experiment [8]. Further, the “Protection of complex III (%)” value in experiment [3] stood at 47.9%. Further, the “activity of complex I” value in experiment [5] is on record as 44 mU/mg of protein. In addition, in experiment [7], the “Protective effect on the RCR (%)” value is on record as “+22.7%”. The “way in which the RCR is increased (class I / class II)” value in experiment [7] is “increase the RCR by decreasing stage 4 of respiration”. Besides, in experiment [1], the “Protection of complex I (%)” value came to 27.5%.
For `O=C1C=CC(=O)c2ccccc21` [Naphthoquinone, Nafthoquinone], in experiment [3], the “Protection of complex III (%)” value came to 46.6%. Also, in experiment [7], the “Protective effect on the RCR (%)” value is “+19.7%” and the “way in which the RCR is increased (class I / class II)” value is “increase the RCR by decreasing stage 4 of respiration”. In experiment [1], the “Protection of complex I (%)” value was determined as 14.1%.
Turning to `COc1ccc(-c2cc(=O)c3c(O)cc(O[C@@H]4O[C@H](CO[C@@H]5O[C@@H](C)[C@H](O)[C@@H](O)[C@H]5O)[C@@H](O)[C@H](O)[C@H]4O)cc3o2)cc1O` [diosmin], the “way in which the RCR is increased (class I / class II)” value in experiment [7] is “increase the RCR by decreasing stage 4 of respiration”.
On the same count and under the same terms, as for aescin, the entry is “increase the RCR by decreasing stage 4 of respiration”.
“o-(hydroxyethyl) rutosides [hydroxyethylrutosides]”: the “way in which the RCR is increased (class I / class II)” value in experiment [7] is reported as “increase the RCR by increasing stage 3 of respiration”.
